Legend:
Staphylococcus aureus [1] = test: Antibacterial activity against methicillin-resistant Staphylococcus aureus ATCC BAA-1708 after 18 hrs by agar dilution method; type: functional; conditions: ATCC BAA-1708, 18 h
[2] = AUC (0 to t) in Sprague-Dawley rat at 5 mg/kg, po administered as single dose; type: ADME, organism-based; conditions: in vivo
[3] = Tmax in Sprague-Dawley rat at 5 mg/kg, po administered as single dose; type: ADME, organism-based; conditions: in vivo
Staphylococcus aureus [4] = test: Antibacterial activity against methicillin-resistant Staphylococcus aureus ATCC BAA-976 after 18 hrs by agar dilution method; type: functional; conditions: ATCC BAA-976, 18 h
Staphylococcus aureus [5] = test: Antibacterial activity against methicillin-sensitive Staphylococcus aureus ATCC 29213 after 18 hrs by agar dilution method; type: functional; conditions: ATCC 29213, 18 h
[6] = Half life in Sprague-Dawley rat at 5 mg/kg, po administered as single dose; type: ADME, organism-based; conditions: in vivo
[7] = Half life in Sprague-Dawley rat at 1 mg/kg, iv administered as single dose; type: ADME, organism-based; conditions: in vivo
Staphylococcus aureus [8] = test: Antibacterial activity against methicillin-resistant Staphylococcus aureus ATCC 43300 after 18 hrs by agar dilution method; type: functional; conditions: ATCC 43300, 18 h
Staphylococcus aureus [9] = test: Antibacterial activity against methicillin-resistant Staphylococcus aureus 13-18 clinical isolate after 18 hrs by agar dilution method; type: functional; conditions: 13-18, 18 h
Staphylococcus aureus [10] = test: Antibacterial activity against methicillin-resistant Staphylococcus aureus ATCC 33591 after 18 hrs by agar dilution method; type: functional; conditions: ATCC 33591, 18 h
[11] = Toxicity in iv dosed Kunming mouse administered as single dose measured for 7 days; type: organism-based; conditions: in vivo
Staphylococcus aureus [12] = test: Antibacterial activity against methicillin-resistant Staphylococcus aureus 13-23 clinical isolate after 18 hrs by agar dilution method; type: functional; conditions: 13-23, 18 h
[13] = Mean residence time (0 to t) in Sprague-Dawley rat at 5 mg/kg, po administered as single dose; type: ADME, organism-based; conditions: in vivo
[14] = Cmax in Sprague-Dawley rat at 5 mg/kg, po administered as single dose; type: ADME, organism-based; parameters: dose 5 mg/kg, route oral; conditions: in vivo
Staphylococcus aureus [15] = test: Antibacterial activity against methicillin-sensitive Staphylococcus aureus 16-1 clinical isolate after 18 hrs by agar dilution method; type: functional; conditions: 16-1, 18 h
Staphylococcus aureus [16] = test: Antibacterial activity against methicillin-resistant Staphylococcus aureus 16-34 clinical isolate after 18 hrs by agar dilution method; type: functional; conditions: 16-34, 18 h
[17] = AUC (0 to t) in Sprague-Dawley rat at 1 mg/kg, iv administered as single dose; type: ADME, organism-based; conditions: in vivo
[18] = Stability of the compound in Sprague-Dawley rat whole blood assessed as parent compound remaining after 1 hr by LC-MS/MS analysis; type: ADME, tissue-based; conditions: read-out: Stability
[19] = Stability of the compound in Sprague-Dawley rat whole blood assessed as parent compound remaining after 24 hrs by LC-MS/MS analysis; type: ADME, tissue-based; conditions: read-out: Stability
[20] = Oral bioavailability in Sprague-Dawley rat at 5 mg/kg administered as single dose; type: ADME, organism-based; conditions: in vivo
[21] = Mean residence time (0 to t) in Sprague-Dawley rat at 1 mg/kg, iv administered as single dose; type: ADME, organism-based; conditions: in vivo
Staphylococcus aureus [22] = test: Antibacterial activity against methicillin-resistant Staphylococcus aureus 16-30 clinical isolate after 18 hrs by agar dilution method; type: functional; conditions: 16-30, 18 h
[23] = Stability of the compound in Sprague-Dawley rat whole blood assessed as parent compound remaining after 0.5 hrs by LC-MS/MS analysis; type: ADME, tissue-based; conditions: read-out: Stability

SMILES: COc1ccc2c(c[n+]3c4c2cc(Cc2ccccc2C)c2c5c(cc(c24)CC3)OCO5)c1OC.[Br-]
- MIC (Staphylococcus aureus [1]): 2 µg/mL
- AUC(0-t) [2]: 28.3 ng·h/mL
- Tmax [3]: 1 h
- MIC (Staphylococcus aureus [4]): 1 µg/mL
- MIC (Staphylococcus aureus [5]): 4 µg/mL
- half-life [6]: 1.5 h
- half-life [7]: 7.2 h
- MIC (Staphylococcus aureus [8]): 2 µg/mL
- MIC (Staphylococcus aureus [9]): 2 µg/mL
- MIC (Staphylococcus aureus [10]): 2 µg/mL
- LD50 at 168 h [11]: 65.6 mg/kg
- MIC (Staphylococcus aureus [12]): 2 µg/mL
- MRT last [13]: 2.1 h
- Cmax [14]: 11.7 ng/mL
- MIC (Staphylococcus aureus [15]): 2 µg/mL
- MIC (Staphylococcus aureus [16]): 2 µg/mL
- AUC(0-t) [17]: 724 ng·h/mL
- remaining at 1 h [18]: 94.2%
- remaining at 24 h [19]: 80.9%
- bioavailability [20]: 0.8%
- MRT last [21]: 4.3 h
- MIC (Staphylococcus aureus [22]): 4 µg/mL

SMILES: CCOC(=O)[C@H](CCc1ccccc1)N[C@@H](C)C(=O)N1CCC[C@H]1C(=O)O [ENALAPRIL]
- remaining at 0.5 h [23]: 42.9%
- remaining at 1 h [18]: 10.9%
